# Measurements published in PMC5216351, “Obtaining control of cell surface functionalizations via Pre-targeting and Supramolecular host guest interactions” (Scientific Reports, 2017).
# Positions of bridges follow the written chain, without caps; N, C: chain ends. Non-standard residues stand in square brackets, D forms with d. Residues, ends and D or L forms follow the SMILES beside them. *: point of attachment. Adamantane1carbonyl = O=C(C12CC3CC(CC(C3)C1)C2)*; 2Nal = N[C@@H](Cc1ccc2ccccc2c1)C(=O)O; Cit = NC(=O)NCCC[C@H](N)C(=O)O
# Assays:
# MDAMB231 X4 cells = experiment: Host-guest dependent cell functionalization, confocal microscopy and flow cytometry; type: cell-based, human; details: peptide 10 μM, polymer 10 μM β-CD / 1 μM polymer, 1 h each at 0 °C; Fig. 3a
# Procedure: The receptor-mediated functionalization of cells was examined by confocal microscopy and flow cytometry (see also ‘Ac-TZ14011-Ad induced cell functionalization analyzed by flow cytometry’). For Confocal microscopy MDAMB231 × 4 cells (80,000 per well) were incubated with either Ac-TZ14011 (10 μM), Ac-TZ14011-Ad (10 μM), or none, for 1 h at 0 °C in 1 mL DMEM. […] Thereafter, the cells were washed twice with PBS and confocal images were acquired. All experiments were performed in 6-fold and for each condition per experiment at least 10 cells were included in the study. The Cy5 signal present on the cell in each sample was quantified to analyze differences between the amount of binding of the polymers to the cells when either, no peptide, Ac-TZ14011, or Ac-TZ14011-Ad was present. For normalization all results were divided by the average fluorescence value obtained when just the polymer was added. The significance of the obtained differences was determined by student T-test (two tailed, unpaired).
# Besides examining the receptor-mediated functionalization of cells by confocal microscopy (see ‘Ac-TZ14011-Ad induced cell functionalization analyzed by confocal microscopy’) the functionalization was also examined by flow cytometry to quantify the rate of functionalization. […] For data normalization, all results were divided by the average fluorescence value obtained when only the polymer was added. […]
# [1] = target: T1, chemokine receptor 4 (CXCR4) (Homo sapiens, UniProt P61073); experiment: Flow cytometry competition binding on viable CXCR4 expressing cells (receptor affinity); details: competition with Ac-TZ14011-MSAP (250 nM), 0.5 – 15,000 nM in PBS, MDAMB231 X4 cells, 1 h on ice, n = 2, One site-Fit Ki
# T1 construct: expressed in transfected cells; host or cells: MDAMB231 X4 (human MDA-MB-231 breast cancer cells, provided by Dr. Gary Luker)
# T1 sequence (P61073 whole entry): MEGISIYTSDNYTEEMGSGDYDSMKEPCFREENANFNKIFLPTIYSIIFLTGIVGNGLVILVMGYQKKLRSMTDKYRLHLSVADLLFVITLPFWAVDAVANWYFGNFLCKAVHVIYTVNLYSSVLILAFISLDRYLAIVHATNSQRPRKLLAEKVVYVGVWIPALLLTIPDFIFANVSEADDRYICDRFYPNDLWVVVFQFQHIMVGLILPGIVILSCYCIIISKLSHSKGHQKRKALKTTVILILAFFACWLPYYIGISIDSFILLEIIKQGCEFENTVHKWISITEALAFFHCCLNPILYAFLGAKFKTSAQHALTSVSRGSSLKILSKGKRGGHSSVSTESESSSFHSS
# Procedure: Human MDAMB231 cells, transfected with human CXCR4 conjugated GFP (MDAMB231 X4), were kindly provided by Dr. Gary Luker (Center for Molecular Imaging, University of Michigan, USA).5 Native MDAMB231 cells with basal CXCR4 expression were used as control.6 Cells we re maintained in Dulbecco’s minimum essential medium (DMEM) enriched with 10% fetal bovine serum and 5 mL Penicillin/Streptomycin (1,000 units/mL Penicillin; 1,000 μg/mL Streptomycin) (all Life Technologies Inc.). Cell lines were cultured and maintained under standard conditions […]
# One day prior the experiment, cells were trypsinized, seeded onto culture dishes with glass insert (ø35mm glass bottom dishes No. 15, poly-d-lysine coated, γ-Irradiated, MatTek corporation) and incubated overnight in 2 mL DMEM. […] The intrinsic GFP signal in the MDAMB231 X4 cells was measured with excitation at 488 nm and emission was collected at 500-525 nm.
# Cy3 fluorescence was measured with excitation at 514 nm, emission was collected at 550-5 70 nm. Cy5 fluorescence was measured with excitation at 633 nm, emission was collected at 650-700 nm. Any Hoechst 33342 fluorescence was measured using 405 nm excitation and emission was collected at 420-470 nm. Images and signal quantifications were obtained using Leica Application Suite software, by applying the polygon function and calculating the average gray value/m2 for each cell. […]
smiles,measurement,setting,value
CC(=O)N[C@@H](CCCNC(=N)N)C(=O)N[C@@H](CCCNC(=N)N)C(=O)N[C@@H](Cc1ccc2ccccc2c1)C(=O)N[C@H]1CSSC[C@@H](C(=O)N[C@@H](CCCNC(=N)N)C(N)=O)NC(=O)[C@H](CCCNC(N)=O)NC(=O)[C@H](CCCNC(=N)N)NC(=O)[C@H](Cc2ccc(O)cc2)NC(=O)[C@@H]2CCCN2C(=O)[C@@H](CCCCNC(=O)C23CC4CC(CC(C4)C2)C3)NC(=O)[C@H](CCCNC(=N)N)NC(=O)[C@H](CCCNC(N)=O)NC(=O)[C@H](Cc2ccc(O)cc2)NC1=O [Ac-TZ14011-Ad] (Ac-RR[2Nal]CY[Cit]R[dK](Adamantane1carbonyl)PYR[Cit]CR-NH2; disulfide 4-13),effect of pre-targeting peptide on Cy5_0.5CD10PIBMA39 binding,MDAMB231 X4 cells,further enhances this effect
same,Kd,[1],56 nM
